Consider one molecule from patent US20170298056A1, “SMALL MOLECULE INHIBITORS OF HIV-1 ENTRY AND METHODS OF USE THEREOF” (Dana-Farber Cancer Institute, Inc., priority 2014, published 2017).

Each structure is given as a SMILES string. Like-named read-outs stand apart in the source and are kept apart here.

What all share (assay type): cell-based
The test system of assay [1] is amphotropic murine leukemia virus (A-MLV). The experiment in a line: Viral infection assay, control virus with A-MLV envelope. The procedure: (§1) Production of recombinant HIV-1 expressing luciferase. […] After 48 hours, the supernatant was collected, buffered with 50 mM Hepes pH 7.4 (final concentration) and centrifuged for 5 minutes at 750×g and 4° C. The virus-containing supernatant was used directly or frozen at −80° C.
(§2) Viral infection assay. Each test compound was serially diluted in DMSO in a 96-well B&W isoplate (PerkinElmer, Boston, Mass.) using an HP D300 Digital Dispenser, to a final volume of 450 nl. DMSO was used as a control. Viruses pseudotyped with a specific Env were added to each well and incubated briefly at room temperature. Cf2Th-CD4/CCR5 cells were detached with StemPro Accutase Cell Dissociation Reagent (Invitrogen, cat #A11105-01), washed once, and 5000 cells were added to each well. […] Following incubation, the medium was aspirated and cells were lysed with 30 μl of Passive Lysis Buffer (Promega, cat #E1941). The activity of the firefly luciferase, which was used as a reporter protein in the system, was measured with a Centro LB 960 luminometer (Berthold Technologies, Oak Ridge, Tenn.). One hundred microliters of assay buffer (15 mM MgSO4, 15 mM KH2PO4/K2HPO4 pH 7.8, 1 mM ATP and 1 mM DTT) was injected to each well, followed by a 50 μl injection of 1 mM Dluciferin potassium salt (BD Pharmingen, San Jose, Calif.); luminescence was measured for 2 sec. Infection of PBMC was done as above, but 20,000-40,000 cells/well and viruses concentrated by ultracentrifugation were used. After four hours of incubation with viruses, the cells were centrifuged at 200×g for 6 minutes at 4° C., resuspended in 100 μl RPMI-PBMC medium and incubated at 37° C. for an additional 36-40 hours (total 40-44 hours). Supernatant was removed after centrifugation at 400×g for 5 minutes and cells were processed to detect luciferase activity, as described above.
The effect of 18A on viral infection was tested using recombinant HIV-1 pseudotyped with the envelope glycoproteins of different primate immunodeficiency viruses or the amphotropic murine leukemia virus (A-MLV) as a control.

The subject of another assay is HIV-1ADA. Description: Viral infection assay, ADA Env (wild type, ΔV1V2, CD4-independent N197S). The conditions noted are these: for Fold change: mutant/wild-type IC50. The procedure:
To study CD4-independent infection, the full-length HIV-1ADA N197S Env mutant was used. This Env is an ADA-HXBc2 chimera with an N197S change. The control “wild-type” ADA Env used in these experiments is also an ADA-HXBc2 chimera.
as §1, §2

Another assay concerns HIV-2OC1. Description: Viral infection assay, HIV-2 Env. The conditions noted are these: virus with HIV-2OC1 Env. The procedure: as §1
as §2, with “Infection of PBMC was done as above, but 20,000-40,000 cells/well and viruses concentrated by ultracentrifugation were used. After four hours of incubation with viruses, the cells were centrifuged at 200×g for 6 minutes at 4° C., resuspended in 100 μl RPMI-PBMC medium and incubated at 37° C. for an additional 36-40 hours (total 40-44 hours). Supernatant was removed after centrifugation at 400×g for 5 minutes and cells were processed to detect luciferase activity, as described above.” left out

The test system of assay [2] is F-luc expression in H-Fluc4 cells. The experiment in a line: Specificity control assay (induced firefly luciferase, H-Fluc4 cells). As for the experimental part:
H-JRFL#1336 (effector) and H-Fluc4 (control) cells were grown in DMEM containing 10% FBS, 100 μg/ml streptomycin, 100 units/ml penicillin, 200 μg/ml G418, 1 μg/ml puromycin and 2 μg/ml doxycycline. H-JRFL#13 cells carry an HIV-1JR-FL env gene that is induced by growing the cells in the absence of doxycycline (Tet-Off expression system). H-Fluc4 cells, which carry a firefly luciferase gene that is induced in the absence of doxycycline, were used as specificity controls. Both cell lines were derived from HeLa cells and constitutively express the tetracycline-regulated transactivator (Tet-Off expression system). […]
H-JRFL#13 or H-FLuc4 cells were washed thrice, detached with StemPro Accutase, centrifuged at 200×g for 6 minutes at 10° C. and seeded in DMEM containing 10% tetracycline-approved FBS, 100 μg/ml streptomycin, 100 units/ml penicillin, 100 μg/ml G418, 1 μg/ml puromycin and without Phenol Red. […] Firefly luciferase activity was measured using an EnVision Multilabel Plate Reader (PerkinElmer, Boston, Mass.). […]
To identify new molecules that potentially affect HIV-1 entry, a cell-cell fusion assay that mimics the entry of HIV-1 into cells was established (FIG. 1a). The assay uses a firefly luciferase (F-luc) readout to measure the fusion of HeLa effector cells that express the Envs from a primary HIV-1 strain and target cells coexpressing the CD4 and CCR5 receptors. […]

As for `O=C(N/N=C/c1ccc(O)cc1)Nc1cccc2nsnc12` [Compound 18A], the half-maximal inhibitory concentration (IC50) in assay [1] (Cf2Th-CD4/CCR5 cells, read-out: IC50 for the control A-MLV) is 56 µM; in assay [1] (Example 8 table, read-out: IC50 (A-MLV)) it was 56.5 µM; in the assay with HIV-1ADA (ADA Env wild type) it was 12.8 ± 1.5 µM; in the assay on HIV-1ADA (ADA Env ΔV1V2), 10.8 ± 2 µM; in assay [2], 15.1 ± 1.1 µM. The Fold change with HIV-1ADA (ADA Env wild type) worked out at 1; with HIV-1ADA (ADA Env ΔV1V2), 0.8. The “infection of CD4-negative, CCR5-expressing cells” value in the assay on HIV-1ADA (CD4-independent HIV-ADA N197S) was “protected CD4-negative, CCR5-expressing cells from infection”. Moreover, the “entry into CD4/CCR5-expressing cells” value in the assay with HIV-1ADA (wild-type HIV-1ADA and HIV-1ADA N197S) is “blocked by 18A with a similar profile of inhibition”. In the assay with HIV-2OC1, the inhibition of infection result was “significantly less potent”.
